Reference: ChEMBL document CHEMBL1201862, “PubChem BioAssay data set” (2004)
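Where inhibition never reached the appropriate level, the endpoint shown equals the highest concentration tested. Otherwise, values were interpolated linearly from a five-concentration, 48-hour dose response in 96-well plates. At the GI50, growth is halved.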 Calls of active or inactive are those of the source. No stated cut-off is given here; in the data, active = GI50 up to about 1.1 µM and inactive = higher.

Assays:
Test in all cases: DTP human tumour cell line panel, 48 h
SF-295 = test system: SF-295
HCT-116 = test system: HCT-116
SK-MEL-2 = test system: SK-MEL-2
SK-MEL-28 = test system: SK-MEL-28
COLO 205 = test system: COLO 205
SK-OV-3 = test system: SK-OV-3
NCI-H522 = test system: NCI-H522
IGROV-1 = test system: IGROV-1
UACC-62 = test system: UACC-62
UACC-257 = test system: UACC-257
NCI-H226 = test system: NCI-H226
SF-268 = test system: SF-268
HT-29 = test system: HT-29
OVCAR-8 = test system: OVCAR-8
HOP-92 = test system: HOP-92
CAKI-1 = test system: CAKI-1

Measured: GI50

CCC(C)CNC1=C(NC(C)=O)C(=O)c2ccccc2C1=O (stereo not drawn)
inactive: SF-295 > 100 µM | HCT-116 > 100 µM | SK-MEL-2 > 100 µM | SK-MEL-28 > 100 µM | COLO 205 78.9 µM | SK-OV-3 > 100 µM | NCI-H522 78.2 µM | IGROV-1 > 100 µM | UACC-62 > 100 µM | UACC-257 > 100 µM | NCI-H226 > 100 µM | SF-268 > 100 µM | HT-29 > 100 µM | OVCAR-8 > 100 µM

N/N=C1\c2ccccc2C2/C(=N\N)c3ccccc3C12 (stereo not drawn)
inactive: SF-295 > 100 µM | SK-MEL-2 > 100 µM | SK-MEL-28 > 100 µM | COLO 205 > 100 µM | SK-OV-3 > 100 µM | NCI-H522 > 100 µM | IGROV-1 > 100 µM | UACC-62 > 100 µM | UACC-257 > 100 µM | SF-268 > 100 µM | HOP-92 > 100 µM | HT-29 > 100 µM | CAKI-1 > 100 µM | OVCAR-8 > 100 µM

O=C1c2c(c3c4ccccc4[nH]c3c3[nH]c4ccccc4c23)C(=O)N1Cc1ccccc1
inactive: SF-295 3.9 µM | HCT-116 2.74 µM | SK-MEL-2 3.2 µM | SK-MEL-28 2.89 µM | COLO 205 2.2 µM | SK-OV-3 2.96 µM | NCI-H522 1.77 µM | IGROV-1 4.09 µM | UACC-62 4.25 µM | UACC-257 3.75 µM | NCI-H226 2.1 µM | SF-268 3.01 µM | HOP-92 2.43 µM | HT-29 4.04 µM | CAKI-1 3.65 µM | OVCAR-8 4.47 µM

N=C(c1ccccc1)N1CCCCC1
active: HOP-92 < 0.01 µM
inactive: SF-295 > 100 µM | HCT-116 > 100 µM | SK-MEL-2 > 100 µM | SK-MEL-28 > 100 µM | COLO 205 > 100 µM | NCI-H522 > 100 µM | UACC-257 > 100 µM | NCI-H226 > 100 µM | SF-268 > 100 µM | HT-29 > 100 µM | CAKI-1 > 100 µM | OVCAR-8 > 100 µM

Nc1nc(-c2ccco2)cc(-c2ccco2)n1
inactive: SF-295 > 100 µM | HCT-116 > 100 µM | SK-MEL-2 > 100 µM | SK-MEL-28 > 100 µM | COLO 205 > 100 µM | NCI-H522 > 100 µM | IGROV-1 > 100 µM | UACC-62 > 100 µM | NCI-H226 71.3 µM | SF-268 > 100 µM | HT-29 > 100 µM | OVCAR-8 > 100 µM

C/C=C(/CCC1NCCC2c3ccccc3NC12)[Si](C)(C)C (stereo not drawn)
inactive: SF-295 15.6 µM | HCT-116 3.52 µM | SK-MEL-2 13.8 µM | SK-MEL-28 5.2 µM | COLO 205 1.69 µM | SK-OV-3 15.7 µM | NCI-H522 16 µM | IGROV-1 12.8 µM | UACC-62 13.5 µM | UACC-257 4.38 µM | NCI-H226 13.3 µM | SF-268 9.31 µM | HOP-92 5.58 µM | HT-29 2.83 µM | CAKI-1 10.8 µM | OVCAR-8 7.98 µM

C[C@@H]1C[C@]2(C[C@@H](C)C3[C@@H](CC4(C)[C@@H]5CCC6C(C)(C)OC(=O)C=C[C@]67C[C@@]5(CC[C@]34C)OO7)O2)OC1=O (stereo partly drawn)
inactive: SF-295 36 µM | HCT-116 61.5 µM | SK-MEL-2 50.4 µM | SK-MEL-28 66.7 µM | COLO 205 > 100 µM | SK-OV-3 43.6 µM | NCI-H522 29.6 µM | IGROV-1 56.2 µM | UACC-62 21.2 µM | UACC-257 55.2 µM | NCI-H226 24.8 µM | HT-29 > 100 µM | OVCAR-8 67.5 µM
